Data on 22 compounds can be found in patent publication US7605272B2, “IGF-1R inhibitor” (Kyowa Hakko Kirin Co., Ltd., priority 2005, dated 2009).

Experiment [1] deals with NCI-H929. Nature of the experiment: Cytostatic activity on human multiple myeloma cell line NCI-H929 (WST-1). The class given is cell-based. As to conditions: Homo sapiens, NCI-H929, 72 h; for inhibition at 1 µM: read-out: cytostatic rate (%) H929 (1 μmol/L); for inhibition at 10 µM: 10 μmol/L, read-out: cytostatic rate (%) H929 (10 μmol/L). On the procedure:
(§1) The cytostatic rates of a test compound on human multiple myeloma cell lines NCI-H929 and KMS-11, were determined in the following manner.
(§2) For culturing NCI-H929, Roswell Park Memorial Institute's Medium (RPMI) 1640 (Gibco, Catalog No. 11875-093) containing 15% fetal bovine serum (Gibco, Catalog No. 10099-141), 1 mmol/L sodium pyruvate (Gibco, Catalog No. 11360-070), 10 mmol/L HEPES (Gibco, Catalog No. 15630-80), 4.5 g/L glucose (Sigma, Catalog No. G8769), 0.05 mmol/L 2-mercaptethanol (Nacalai Tesque, Catalog No. 21418-42) and penicillin/streptomycin (1:1) (Gibco, Catalog No. 15140-122) was used. For culturing KMS-11 cell, RPMI 1640 medium containing 10% fetal bovine serum and penicillin/streptomycin (1:1) was used. Each 80 μL of the NCI-H929 cell having a concentration of 1×10^5 cells/mL (or the KMS-11 cell having a concentration of 7.5×10^4 cells/mL) was inoculated to wells of a TC MICROWELL 96U plate (Nalge Nunc International, Catalog No. 163320) and was cultured in a 5% carbon dioxide gas incubator at 37° C. for 24 hours. Each 20 μL of a solution of the test compound in dimethyl sulfoxide (DMSO) which was prepared to make the final concentration to 1 μmol/L or 10 μmol/L, was added to each well. Each 20 μL of DMSO was added to the control well and the blank well to a final concentration of 0.1%. After adding the test compound, the cells were incubated in a 5% carbon dioxide gas incubator at 37° C. for 72 hours except for the blank well. After adding 20 μL of WST-1 reagent {4-[3-(4-iodophenyl)-2-(4-nitrophenyl)-2H-5-tetrazolio]-1,3-benzene disulfonate sodium salt} (Roche Diagnostics K.K., Catalog No. 1644807), which was diluted to 50% by RPMI medium to each well, the cells were further incubated at 37° C. for 2 hours. Then, the absorbances at 450 nm (reference wavelength: 690 nm) were measured with a microplate spectrophotometer SPECTRA max 340PC (Molecular Devices Corporation). The relative growth (%) of a well to which the test compound had been added and cultured for 72 hours was determined while setting the absorbance of a well to which not the test compound but DMSO alone had been added and cultured for 72 hours (control) as 100% and that of a well where the drugs are added (blank) as 0%. The cytostatic rate (%) of the test compound was determined by subtracting the calculated relative growth from 100.

Experiment [2] deals with KMS-11. Nature of the experiment: Cytostatic activity on human multiple myeloma cell line KMS-11 (WST-1). The class given is cell-based. As to conditions: Homo sapiens, 72 hours; for inhibition at 10 µM: 10 μmol/L, read-out: cytostatic rate (%) KMS-11 (10 μmol/L). The protocol:
as §1, §2

Experiment [3] has as its target T1, IGF-1R (Homo sapiens, UniProt P08069).
T1 construct: purchased Upstate Co. 14-465
Nature of the experiment: IGF-1R inhibitory activity (kinase reaction, time-resolved fluoroimmunoassay). The class given is biochemical. As to conditions: test compound 10 μmol/L. The essentials:
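Compounds were tested at a single 10 μmol/L concentration. Each was incubated with recombinant IGF-1R (200 μg/L), 10 mmol/L ATP, MgCl2/MnCl2 and Na3VO4 (pH 7.5) on immobilized poly(Glu-Tyr) peptide for 30 min at 24° C. Eu-anti-phosphotyrosine time-resolved fluorescence (340/615 nm) gave relative activity against no-compound and no-enzyme wells, reported as % inhibition.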

[4] abbreviates: IGF-1R active recombinant enzyme.

The structures appear in SMILES notation. Read-outs that look alike come from different tables or passages of the source.

T1 sequence (P08069 959-1367 limits assumed): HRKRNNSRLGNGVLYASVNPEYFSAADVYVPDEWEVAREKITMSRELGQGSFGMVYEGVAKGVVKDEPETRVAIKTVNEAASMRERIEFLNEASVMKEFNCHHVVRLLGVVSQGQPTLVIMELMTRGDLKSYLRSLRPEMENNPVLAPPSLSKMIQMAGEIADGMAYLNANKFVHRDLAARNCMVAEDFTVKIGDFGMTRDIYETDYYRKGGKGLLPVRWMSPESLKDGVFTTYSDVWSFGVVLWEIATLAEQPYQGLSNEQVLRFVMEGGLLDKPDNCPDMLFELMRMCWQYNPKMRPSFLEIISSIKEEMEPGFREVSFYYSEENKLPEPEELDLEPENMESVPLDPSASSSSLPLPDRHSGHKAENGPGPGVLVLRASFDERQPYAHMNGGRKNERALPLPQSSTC

`CN[C@@H]1CN(CCCOc2ccc(/C=C/c3n[nH]c4ccccc34)c(NC(=O)c3sccc3C)c2OC)C[C@H]1OC` (relative stereo) [Compound 348, (E)-N-(6-[2-(1H-indazol-3-yl)vinyl]-2-methoxy-3-{3-[(3R*,4R*)-3-methoxy-4-(methylamino)pyrrolidin-1-yl]propoxy}phenyl)-3-methylthiophene-2-carboxamide]: the inhibition at 1 µM in experiment [1] (1 μmol/L, 72 hours) was 116%; in experiment [2] (KMS-11, 72 h, 1 μmol/L, read-out: cytostatic rate (%) KMS-11 (1 μmol/L)), 117%. Also, in experiment [3] (setting [4]), the inhibition at 10 µM is 109%.

As for `O=[N+]([O-])c1ccccc1/C=C/c1n[nH]c2ccccc12` [Compound 1, (E)-3-[2-(2-nitrophenyl)vinyl]-1H-indazole], the inhibition at 10 µM is 105% in experiment [1] (72 hours); 80.2% in experiment [2] (KMS-11, 72 h); 71.2% in experiment [3] (setting [4]).

As to `O=C(Nc1ccccc1/C=C/c1n[nH]c2ccccc12)c1ccc(F)cc1` [Compound 3, (E)-4-fluoro-N-{2-[2-(1H-indazol-3-yl)vinyl]phenyl}benzamide], the inhibition at 10 µM in experiment [1] (72 hours) was determined as 115%; in experiment [2] (KMS-11, 72 h), 118%; in experiment [3] (setting [4]), 99.1%.

As for `COc1ccc(C(=O)Nc2ccccc2/C=C/c2n[nH]c3ccccc23)cc1` [Compound 4, (E)-N-{2-[2-(1H-indazol-3-yl)vinyl]phenyl}-4-methoxybenzamide], the inhibition at 10 µM is 114% in experiment [1] (72 hours); 130% in experiment [2] (KMS-11, 72 h); 98.5% in experiment [3] (setting [4]).

Turning to `Cc1ccc(C(=O)Nc2ccccc2/C=C/c2n[nH]c3ccccc23)cc1` [Compound 5, (E)-N-{2-[2-(1H-indazol-3-yl)vinyl]phenyl}-4-methylbenzamide], the inhibition at 10 µM in experiment [1] (72 hours) was 116%; in experiment [2] (KMS-11, 72 h), 129%; in experiment [3] (setting [4]), 99.1%.

Consider `O=C(Nc1ccccc1/C=C/c1n[nH]c2ccccc12)c1cccnc1` [Compound 6, (E)-N-{2-[2-(1H-indazol-3-yl)vinyl]phenyl}nicotinamide], for which the inhibition at 10 µM in experiment [1] (72 hours) was determined as 115%; in experiment [2] (KMS-11, 72 h), 120%; in experiment [3] (setting [4]), 97.8%.

As to `O=C(Nc1ccccc1/C=C/c1n[nH]c2ccccc12)c1cccc(F)c1` [Compound 7, (E)-3-fluoro-N-{2-[2-(1H-indazol-3-yl)vinyl]phenyl}benzamide], the inhibition at 10 µM was 115% in experiment [1] (72 hours); 121% in experiment [2] (KMS-11, 72 h); 98.6% in experiment [3] (setting [4]).

On to `O=C(Nc1ccccc1/C=C/c1n[nH]c2ccccc12)c1ccccc1F` [Compound 8, (E)-2-fluoro-N-{2-[2-(1H-indazol-3-yl)vinyl]phenyl}benzamide], for which the inhibition at 10 µM came out at 118% in experiment [1] (72 hours); 126% in experiment [2] (KMS-11, 72 h); 99.5% in experiment [3] (setting [4]).

For the compound `CC(=O)Nc1ccccc1/C=C/c1n[nH]c2ccccc12` [Compound 9, (E)-N-{2-[2-(1H-indazol-3-yl)vinyl]phenyl}acetamide], the inhibition at 10 µM in experiment [1] (72 hours) stood at 59%; in experiment [2] (KMS-11, 72 h), 99.8%; in experiment [3] (setting [4]), 74.3%.

With `O=C(Nc1ccccc1/C=C/c1n[nH]c2ccccc12)c1ccncc1` [Compound 10, (E)-N-{2-[2-(1H-indazol-3-yl)vinyl]phenyl}isonicotinamide], the inhibition at 10 µM in experiment [1] (72 hours) came out at 113%; in experiment [2] (KMS-11, 72 h) it was 102%; in experiment [3] (setting [4]), 99.1%.

Regarding `O=C(Nc1ccccc1/C=C/c1n[nH]c2ccccc12)c1ccco1` [Compound 11, (E)-N-{2-[2-(1H-indazol-3-yl)vinyl]phenyl}furan-2-carboxamide], the inhibition at 10 µM in experiment [1] (72 hours) was 116%; in experiment [2] (KMS-11, 72 h), 120%; in experiment [3] (setting [4]) it was 99.4%.

Take `O=C(Nc1ccccc1/C=C/c1n[nH]c2ccccc12)c1ccccn1` [Compound 12, (E)-N-{2-[2-(1H-indazol-3-yl)vinyl]phenyl}pyridine-2-carboxamide]: the inhibition at 10 µM in experiment [1] (72 hours) turned out to be 118%; in experiment [2] (KMS-11, 72 h), 120%; in experiment [3] (setting [4]) it was 96.1%.

In the case of `C(=C\c1n[nH]c2ccccc12)/c1ccccc1OCc1ccccc1` [Compound 13, (E)-3-[2-(2-benzyloxyphenyl)vinyl]-1H-indazole], the inhibition at 10 µM in experiment [1] (72 hours) is 116%; in experiment [2] (KMS-11, 72 h) it was 105%; in experiment [3] (setting [4]), 96.9%.

With `O=C(Nc1ccccc1/C=C/c1n[nH]c2ccccc12)c1cccs1` [Compound 14, (E)-N-{2-[2-(1H-indazol-3-yl)vinyl]phenyl}thiophene-2-carboxamide], the inhibition at 10 µM in experiment [1] (72 hours) worked out at 114%; in experiment [2] (KMS-11, 72 h), 110%; in experiment [3] (setting [4]), 96.5%.

Turning to `O=C(Cc1ccccc1)Nc1ccccc1/C=C/c1n[nH]c2ccccc12` [Compound 15, (E)-N-{2-[2-(1H-indazol-3-yl)vinyl]phenyl}-2-phenylacetamide], the inhibition at 10 µM was determined as 93.6% in experiment [1] (72 hours); 95.1% in experiment [2] (KMS-11, 72 h); 55.4% in experiment [3] (setting [4]).

With `COC(=O)c1ccc(/C=C/c2n[nH]c3ccccc23)c(NC(=O)c2sccc2C)c1` [Compound 97, (E)-4-[2-(1H-indazol-3-yl)vinyl]-3-[(3-methylthiophen-2-ylcarbonyl)amino]benzoic acid methyl ester], the inhibition at 10 µM is 100% in experiment [2] (KMS-11, 72 h) and 97.1% in experiment [3].

Consider `Cc1ccsc1C(=O)Nc1cc(C(=O)N2CCNCC2)ccc1/C=C/c1n[nH]c2ccccc12` [Compound 99, (E)-N-{2-[2-(1H-indazol-3-yl)vinyl]-5-(piperazin-1-ylcarbonyl)phenyl}-3-methylthiophene-2-carboxamide], for which the inhibition at 10 µM in experiment [2] (KMS-11, 72 h) stood at 118%; in experiment [3] it was 97.4%.

Turning to `CCN(CC)C(=O)c1ccc(/C=C/c2n[nH]c3ccccc23)c(NC(=O)c2sccc2C)c1` [Compound 101, (E)-N-{5-(N,N-diethylcarbamoyl)-2-[2-(1H-indazol-3-yl)vinyl]phenyl}-3-methylthiophene-2-carboxamide], the inhibition at 10 µM turned out to be 117% in experiment [2] (KMS-11) and 100% in experiment [3].

In the case of `Nc1ccc(C(=O)Nc2ccc(OCCN3CCOCC3)cc2/C=C/c2n[nH]c3ccccc23)s1` [Compound 106, (E)-5-amino-N-{2-[2-(1H-indazol-3-yl)vinyl]-4-(2-morpholinoethoxy)phenyl}thiophene-2-carboxamide], the inhibition at 10 µM in experiment [1] (72 hours) turned out to be 112%; in experiment [2] (KMS-11, 72 h) it was 115%.

Take `CCCNC(=O)c1ccc(/C=C/c2n[nH]c3ccccc23)c(NC(=O)c2sccc2C)c1` [Compound 112, (E)-N-{2-[2-(1H-indazol-3-yl)vinyl]-5-(N-propylcarbamoyl)-phenyl}-3-methylthiophene-2-carboxamide]: the inhibition at 10 µM in experiment [2] (KMS-11, 72 h) came to 126%; in experiment [3], 98.5%.

As to `CCN(C)C(=O)c1ccc(/C=C/c2n[nH]c3ccccc23)c(NC(=O)c2sccc2C)c1` [Compound 113, (E)-N-{5-(N-ethyl-N-methylcarbamoyl)-2-[2-(1H-indazol-3-yl)vinyl]phenyl}-3-methylthiophene-2-carboxamide], the inhibition at 10 µM amounted to 121% in experiment [2] (KMS-11, 72 h) and 98.6% in experiment [3].

On to `COC1CCN(C(=O)c2ccc(/C=C/c3n[nH]c4ccccc34)c(N3Cc4c(N)cccc4C3=O)c2)CC1` [Compound 310, (E)-4-amino-2-{2-[2-(1H-indazol-3-yl)vinyl]-5-(4-methoxypiperidin-1-ylcarbonyl)phenyl}-2,3-dihydroisoindole-1-one], for which, in experiment [1] (NCI-H929 cells, test compound 1 μmol/L, WST-1), the inhibition at 1 µM worked out at 105%. Moreover, the inhibition at 10 µM in experiment [3] (setting [4]) turned out to be 97.9%.
